The source of these data is publication PMC4669708 (Cell Death & Disease, 2015).

Test [1] concerns the target T1, MAP3K7 (Homo sapiens, UniProt O43318).
T1 sequence (O43318 1-606): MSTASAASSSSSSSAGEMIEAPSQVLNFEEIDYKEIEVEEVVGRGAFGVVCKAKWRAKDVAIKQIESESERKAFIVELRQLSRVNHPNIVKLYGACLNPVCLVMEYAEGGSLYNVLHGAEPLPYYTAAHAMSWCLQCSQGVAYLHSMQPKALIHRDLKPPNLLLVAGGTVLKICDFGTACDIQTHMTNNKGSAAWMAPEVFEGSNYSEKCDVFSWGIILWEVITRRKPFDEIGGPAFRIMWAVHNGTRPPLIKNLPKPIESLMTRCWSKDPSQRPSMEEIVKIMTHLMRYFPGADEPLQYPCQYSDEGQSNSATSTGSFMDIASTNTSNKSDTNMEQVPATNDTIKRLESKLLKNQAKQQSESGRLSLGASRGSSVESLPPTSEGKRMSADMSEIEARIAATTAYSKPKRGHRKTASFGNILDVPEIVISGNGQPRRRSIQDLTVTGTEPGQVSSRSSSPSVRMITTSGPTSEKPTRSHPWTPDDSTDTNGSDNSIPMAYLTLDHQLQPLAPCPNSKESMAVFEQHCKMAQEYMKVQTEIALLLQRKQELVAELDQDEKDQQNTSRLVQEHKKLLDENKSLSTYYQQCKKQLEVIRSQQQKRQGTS
Description: c-ponatinib pulldown LC-MS/MS. The format is binding. Put shortly: (§1)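 Whole cell lysate (10 mg) was first passed over immobilized c-ponatinib, and bound proteins were eluted. After reduction, alkylation and tryptic digestion, the peptides were analysed by LC-MS/MS. Finally, binding specificity was assigned by a combined P-value, with or without free-compound competition.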

Test [2] addresses T2, TAB2 (Homo sapiens, UniProt Q9NYJ8).
T2 sequence (Q9NYJ8 1-693): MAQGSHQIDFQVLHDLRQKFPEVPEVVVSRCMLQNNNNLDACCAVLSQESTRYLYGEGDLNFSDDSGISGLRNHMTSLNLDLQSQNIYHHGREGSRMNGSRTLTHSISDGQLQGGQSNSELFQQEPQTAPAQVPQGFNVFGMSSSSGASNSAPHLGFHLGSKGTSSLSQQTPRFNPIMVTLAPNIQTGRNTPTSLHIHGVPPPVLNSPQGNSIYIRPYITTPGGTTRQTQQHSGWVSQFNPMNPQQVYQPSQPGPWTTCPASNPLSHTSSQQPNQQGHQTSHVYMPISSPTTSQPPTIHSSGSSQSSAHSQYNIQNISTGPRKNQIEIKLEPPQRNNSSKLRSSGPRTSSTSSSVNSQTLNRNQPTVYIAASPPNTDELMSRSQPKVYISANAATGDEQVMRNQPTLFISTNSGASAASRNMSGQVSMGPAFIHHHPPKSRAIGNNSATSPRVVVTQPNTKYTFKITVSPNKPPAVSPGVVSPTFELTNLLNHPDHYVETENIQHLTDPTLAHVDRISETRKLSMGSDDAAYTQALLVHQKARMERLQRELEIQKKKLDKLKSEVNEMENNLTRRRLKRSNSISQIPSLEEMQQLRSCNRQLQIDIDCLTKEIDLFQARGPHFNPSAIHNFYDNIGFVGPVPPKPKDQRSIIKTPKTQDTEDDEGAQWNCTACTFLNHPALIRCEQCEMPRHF
T2 sequence (O43318 1-606 partner): T1 sequence (O43318 1-606)
Description: c-ponatinib pulldown LC-MS/MS. It is filed as binding. Put shortly:
as §1

In the case of `Cc1ccc(C(=O)Nc2ccc(CN3CCN(CCCN)CC3)c(C(F)(F)F)c2)cc1C#Cc1cnc2cccnn12` [c-ponatinib], in test [1] (+ free ponatinib), the “Av. SC comp.” value is on record as 2.25 and the “Total SC comp.” value is recorded as 9. Also, in test [1] (no competitor), the “Av. SC” value came to 19.5 and the “Total SC” value is given as 78. For the same molecule, in test [2] (+ free ponatinib), the “Av. SC comp.” value is on record as 0 and the “Total SC comp.” value was 0. Moreover, in test [2] (no competitor), the “Av. SC” value came out at 2.5 and the “Total SC” value is recorded as 10.
